# Data taken from patent US20050148495A1, “Methods and materials including for treating acne” (priority 2003, published 2005).
# Read-outs that look alike come from different tables or passages of the source. Non-standard residues stand in square brackets, D forms with d. Residues, ends and D or L forms follow the SMILES beside them. d1Nal = N[C@H](Cc1cccc2ccccc12)C(=O)O
# Columns and labels:
# [1] = system: polychromatic erythrocyte (PCE) cells in mouse bone marrow; assay: Mouse bone marrow micronucleus assay; type: in vivo, Crl:CD-1(ICR) BR mouse
# Protocol: XMP.629 was next evaluated for in vivo clastogenic activity and/or disruption of mitotic apparatus by detecting micronuclei in polychromatic erythrocyte (PCE) cells in Crl:CD-1®(ICR) BR mouse bone marrow. The assay design was based on OECD Guideline 474, updated and adopted Jul. 21, 1997. In this micronucleus assay, XMP.629 was formulated in 10 mM sodium acetate buffer (pH 6.0) and dosed by intraperitoneal injection to six males per dose level at each scheduled harvest timepoint. The dose levels were 2, 4, or 8 mg/kg. Five animals dosed with XMP.629 at 2 or 4 mg/kg and five animals dosed with a positive control were euthanized approximately 24 hours after dosing for extraction of the bone marrow. Five animals per harvest timepoint dosed with XMP.629 at 8 mg/kg and five animals per harvest timepoint dosed with the vehicle control article were euthanized approximately 24 or 48 hours after dosing for extraction of the bone marrow. This micronucleus test can serve as a rapid screen for compounds which interfere with normal mitotic cell division (Schmid, 1975, Mutat. Res. 31: 9-15; Heddle et al., 1983, Mutat. Res. 123: 61-118; Heddle et al., 1991, Env. And Mol. Mutagen. 18: 277-291). At least 2000 PCEs per animal were analyzed for the frequency of micronuclei. Cytotoxicity was assessed by scoring the number of PCEs and normochromatic erythrocytes (NCEs) in at least the first 500 erythrocytes for each avenal. […] Therefore, XMP.629 was determined to be negative in the mouse bone marrow micronucleus assay.
# Staphylococcus aureus = settings: for MBC: agent alone
# Clostridium difficile = Clostridium difficile 9689
# [2] = system: Enterococcus faccium (VRE); settings: Enterococcus faccium 700221 (VRE)
# [3] = system: albino hairless guinea pigs Crl:IAF(HA)-hrBR (Outbred); assay: Photosafety study: primary irritancy, phototoxicity, contact hypersensitivity, photoallergy; type: in vivo, guinea pig; settings: XMP.629 up to 10 mg/mL (1.0%)
# Protocol: XMP.629 was evaluated for photoallergic potential administered topically to hairless guinea pigs. Primary irritancy, phototoxicity (photoirritancy) and contact hypersensitivity were also evaluated in these studies.
# Male CrI:IaF(HA)-hrBR (Outbred) albino hairless guinea pigs were assigned to 7 groups, five guinea pigs per group as outlined below.
# XMP.629 was formulated as a gel. The phototoxicity comparator article was 8-methoxypsoralen (8-MOP) in methanol at concentrations of 0.1, 0.3 and 1.0 mg/mL. The contact hypersensitivity and photoallergy comparator article was 3,3′,4′,5′-tetrachlorosalicy/anilide (TCSA) in acetone:corn oil (4:1, v/v) at challenge concentrations of 0 (Vehicle), 10, and 30 mg/mL. The reagent and reagent vehicle were Freund's complete adjuvant (FCA) and sterile water for injection, USP, respectively.
# The formulation administration and ultraviolet radiation (UVR) exposure regimens for each group in the study were as follows.
# For all phases of the study, test articles, test article vehicles, comparator articles and comparator article vehicles were administered (0.3 ml) using a Hilltop chamber affixed to the guinea pig with dental dam overlaid with a Velcro® wrap for approximately 2.0 hours per administration.
# Primary irritancy potential of the test articles and test article vehicles was evaluated in Group 1 guinea pigs. Three chambers (one per formulation dosage) were attached to the dorsal skin along the midline. After the administration period the chamber patches were removed and the application sites were gently wiped.
# Cutaneous phototoxicity potential of the test articles and test article vehicles was evaluated in Group 2 guinea pigs. Group 3 guinea pigs were used as a comparator group with elicitation of phototoxicity with 8-MOP. Three chambers (one per formulation dosage) were attached to the dorsal skin along the midline and occluded. After the administration period the chamber patches were removed and the application sites were gently wiped. After wiping, Group 2 and 3 guinea pigs were exposed to solar-simulated UVR for approximately 2.25 hours.
# For induction of contact hypersensitivity and photoallergy, a nuchal area of skin approximately 2.5 cm^2 was defined by intradermal injections with a formulation of sterile water and FCA in guinea pigs in Groups 4 through 7 under isoflurane/oxygen anesthesia. This skin area was then tape stripped five times. Formulations were topically administered via chambers as described in the study design table using one chamber attached to the nuchal area. After removal of the chambers the application sites were gently wiped and the nuchal site of Group 6 and 7 guinea pigs was exposed to UVR as above. Appropriate procedures for guinea pigs (with the exception of injection with FCA) were repeated once daily on Days 3, 5, 8, 10 and 12 of the induction phase.
# On Day 22 (contact hypersensitivity and photoallergy challenge), formulations were topically applied to appropriate sites on guinea pigs in Groups 4 through 7 as described above. Three chambers (one per formulation dosage) were attached to the dorsal skin along the midline and occluded. The chambers were then removed and the application sites were gently wiped. Guinea pigs in Groups 6 and 7 were then exposed to UVR as above.
# Observations for general appearance and clinical signs were made weekly throughout the study. […] Body weights were recorded at initiation of dosing for each phase, weekly thereafter and at sacrifice. […]
smiles,measurement,setting,value
"CC(C)C[C@@H](NC(=O)[C@H](N)CCCCN)C(=O)N[C@H](Cc1ccccc1)C(=O)N[C@H](CCCNC(=N)N)C(=O)N[C@H](Cc1cccc2ccccc12)C(=O)N[C@H](CCC(N)=O)C(=O)N[C@H](C)C(=O)N[C@H](CCCCN)C(=O)N[C@H](Cc1cccc2ccccc12)C(N)=O [XMP.629, NH2-lys-leu-phe-arg-(3-(1-naphthyl)-ala)-gln-ala-lys-(3-(1-naphthyl)-ala)-CONH2] (H-[dK][dL][dF][dR][d1Nal][dQ][dA][dK][d1Nal]-NH2)",mouse bone marrow micronucleus assay result,"[1]; 2, 4, or 8 mg/kg intraperitoneal",negative
same,cytotoxicity to the bone marrow (PCE:NCE ratios),[1]; any dose level tested,not cytotoxic to the bone marrow
same,signs of clinical toxicity,[1]; up to 8 mg/kg,did not induce any signs of clinical toxicity
same,MBC,Staphylococcus aureus; Staphylococcus aureus 076U-550,8 µg/mL
same,MBC,Staphylococcus aureus; Staphylococcus aureus 230U-579,8 µg/mL
same,MBC,Staphylococcus aureus; Staphylococcus aureus 314U-148,8 µg/mL
same,XMP.629 MBC,"Staphylococcus aureus; Staphylococcus aureus 342U-116, XMP.629 alone",8 µg/mL
same,MBC,Staphylococcus aureus; Staphylococcus aureus 342U-116,8 µg/mL
same,MBC,Staphylococcus aureus; Staphylococcus aureus 15031-1857,4 µg/mL
same,Minimum Inhibitory Concentrations,Clostridium difficile,2.00 µg/mL
same,volume of the central compartment,0.05 mg/kg dose,203.2 mL/kg
same,decrease of plasma concentrations within 4 hours of dosing,intravenous,approximately 100 fold
same,Minimum Inhibitory Concentrations,[2],2.00 µg/mL
same,contact hypersensitivity,[3],did not cause skin changes
same,photoallergy,[3],did not cause skin changes
same,phototoxicity,[3]; single topical administration and UVR,did not cause skin changes
same,primary irritation,"[3]; single topical administration, 0.3 mL/skin site",did not cause skin changes
